# Source: patent US20090076062A1, “Organic Compounds” (priority 2007, published 2009)
# Biological target: T1, Recombinant human renin (Homo sapiens, UniProt P00797)
# T1 construct: made in house; host or cells: Chinese Hamster Ovary cells
# T1 sequence (P00797 67-406): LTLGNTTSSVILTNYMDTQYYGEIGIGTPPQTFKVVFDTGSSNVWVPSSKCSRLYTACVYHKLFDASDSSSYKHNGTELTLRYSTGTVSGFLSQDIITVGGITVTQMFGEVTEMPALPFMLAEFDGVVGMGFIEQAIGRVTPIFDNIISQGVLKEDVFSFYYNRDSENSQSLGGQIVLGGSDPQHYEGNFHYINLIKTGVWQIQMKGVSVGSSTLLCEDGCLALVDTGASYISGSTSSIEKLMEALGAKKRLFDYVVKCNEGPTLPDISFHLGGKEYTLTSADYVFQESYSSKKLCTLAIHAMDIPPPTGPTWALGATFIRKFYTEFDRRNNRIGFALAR
# Experiment: Renin inhibitory activity in vitro, hu-renin FRET assay
# Assay type: biochemical
# Protocol: Recombinant human renin (expressed in Chinese Hamster Ovary cells and purified using standard methods) at 4 nM concentration is incubated with test compound at various concentrations for 1 h at RT in 0.1 M Tris-HCl buffer, pH 7.4, containing 0.05 M NaCl, 0.5 mM EDTA and 0.05% CHAPS. Synthetic peptide substrate Arg-Glu(EDANS)-Ile-His-Pro-Phe-His-Leu-Val-Ile_His_Thr-Lys(DABCYL)-Arg9 is added to a final concentration of 2 μM and increase in fluorescence is recorded at an excitation wave-length of 340 nm and at an emission wave-length of 485 nm in a microplate spectro-fluorimeter. IC50 values are calculated from percentage of inhibition of renin activity as a function of test compound concentration (Fluorescence Resonance Energy Transfer, FRET, assay). Recombinant human renin (expressed in Chinese Hamster Ovary cells and purified using standard methods) at 1 nM concentration is incubated with test compound at various concentrations for 1.5 h at 37° C. in 0.1 M Tris/HCl pH 7.4 containing 0.05 M NaCl, 0.5 mM EDTA and 0.025% (w/v) CHAPS. Synthetic peptide substrate Ac-Ile-His-Pro-Phe-His-Leu-Val-Ile-His-Asn-Lys-[DY-505-X5] is added to a final concentration of 5 μM. The enzyme reaction is stopped by adding 6 μL of 1.0% TFA. The product of the reaction is separated by HPLC and quantified by spectrophotometric measurement at […] wave-length. IC50 values are calculated from percentage of inhibition of renin activity as a function of test compound concentration.
# Renin inhibitory activity was assessed in vitro by FRET assay (as above described). Results for representative compounds of formula I are: […]
row,SMILES,IC50 [nM]
1,"COCCCOc1cc(C[C@@H](C[C@H](N)[C@@H](O)C[C@H](C(=O)NCC2CCCCO2)C(C)C)C(C)C)ccc1OC (single isomer, unassigned) [Example 19, (2S,4S,5S,7S)-5-Amino-4-hydroxy-2-isopropyl-7-[4-methoxy-3-(3-methoxy-propoxy)-benzyl]-8-methyl-nonanoic acid [2(R) or 2(S)-1-(tetrahydro-pyran-2-yl)methyl]-amide]",8
2,"COCCCOc1cc(C[C@@H](C[C@H](N)[C@@H](O)C[C@H](C(=O)NCC2CCCCO2)C(C)C)C(C)C)ccc1OC (single isomer, unassigned) [Example 20, (2S,4S,5S,7S)-5-Amino-4-hydroxy-2-isopropyl-7-[4-methoxy-3-(3-methoxy-propoxy)-benzyl]-8-methyl-nonanoic acid [(R)- or (S)-1-(tetrahydro-pyran-2-yl)methyl]-amide]",7
3,"COCCCOc1cc(C[C@@H](C[C@H](N)[C@@H](O)C[C@H](C(=O)NC2CCCOC2)C(C)C)C(C)C)ccc1OC (single isomer, unassigned) [Example 22, (2S,4S,5S,7S)-5-Amino-4-hydroxy-2-isopropyl-7-[4-methoxy-3-(3-methoxy-propoxy)-benzyl]-8-methyl-nonanoic acid [(R)- or (S)-3-(tetrahydro-pyran-3-yl)]-amide]",2.5
4,"COCCCOc1cc(C[C@@H](C[C@H](N)[C@@H](O)C[C@H](C(=O)NC2CCCOC2)C(C)C)C(C)C)ccc1OC (single isomer, unassigned) [Example 23, (2S,4S,5S,7S)-5-Amino-4-hydroxy-2-isopropyl-7-[4-methoxy-3-(3-methoxy-propoxy)-benzyl]-8-methyl-nonanoic acid [(R)- or (S)-3-(tetrahydro-pyran-3-yl)]-amide]",0.5
5,"COCCCOc1cc(C[C@@H](C[C@H](N)[C@@H](O)C[C@H](C(=O)NCC2CCOC2)C(C)C)C(C)C)ccc1OC (single isomer, unassigned) [Example 29, (2S,4S,5S,7S)-5-Amino-4-hydroxy-2-isopropyl-7-[4-methoxy-3-(3-methoxy-propoxy)-benzyl]-8-methyl-nonanoic acid [3(R) or 3(S)-1-(tetrahydro-furan-3-yl)methyl]-amide]",0.4
6,"COCCCOc1cc(C[C@@H](C[C@H](N)[C@@H](O)C[C@H](C(=O)NCC2CCOC2)C(C)C)C(C)C)ccc1OC (single isomer, unassigned) [Example 30, (2S,4S,5S,7S)-5-Amino-4-hydroxy-2-isopropyl-7-[4-methoxy-3-(3-methoxy-propoxy)-benzyl]-8-methyl-nonanoic acid [(R) or (S)-1-(tetrahydro-furan-3-yl)methyl]-amide]",0.8
7,"COCCCOc1cc(C[C@@H](C[C@H](N)[C@@H](O)C[C@H](C(=O)NC2CCOCC2)C(C)C)C(C)C)ccc1OC [Example 1, (2S,4S,5S,7S)-5-Amino-4-hydroxy-2-isopropyl-7-[4-methoxy-3-(3-methoxy-propoxy)-benzyl]-8-methyl-nonanoic acid (tetrahydro-pyran-4-yl)-amide]",1.4
8,"COCCCOc1cc(C[C@@H](C[C@H](N)[C@@H](O)C[C@H](C(=O)N[C@@H]2CCN(C)C2)C(C)C)C(C)C)ccc1OC [Example 2, (2S,4S,5S,7S)-5-Amino-4-hydroxy-2-isopropyl-7-[4-methoxy-3-(3-methoxy-propoxy)-benzyl]-8-methyl-nonanoic acid ((R)-1-methyl-pyrrolidin-3-yl)-amide]",4
9,"COCCCOc1cc(C[C@@H](C[C@H](N)[C@@H](O)C[C@H](C(=O)N[C@H]2CCN(C)C2)C(C)C)C(C)C)ccc1OC [Example 3, (2S,4S,5S,7S)-5-Amino-4-hydroxy-2-isopropyl-7-[4-methoxy-3-(3-methoxy-propoxy)-benzyl]-8-methyl-nonanoic acid ((S)-1-methyl-pyrrolidin-3-yl)-amide]",0.7
10,"COCCCOc1cc(C[C@@H](C[C@H](N)[C@@H](O)C[C@H](C(=O)NC2CCN(C)CC2)C(C)C)C(C)C)ccc1OC [Example 5, (2S,4S,5S,7S)-5-Amino-4-hydroxy-2-isopropyl-7-[4-methoxy-3-(3-methoxy-propoxy)-benzyl]-8-methyl-nonanoic acid (1-methyl-piperidin-4-yl)-amide]",3.2
11,"COCCCOc1cc(C[C@@H](C[C@H](N)[C@@H](O)C[C@H](C(=O)NC[C@@H]2CCCO2)C(C)C)C(C)C)ccc1OC [Example 10, (2S,4S,5S,7S)-5-Amino-4-hydroxy-2-isopropyl-7-[4-methoxy-3-(3-methoxy-propoxy)-benzyl]-8-methyl-nonanoic acid [(S)-1-(tetrahydro-furan-2-yl)methyl]-amide]",3.5
12,"COCCCOc1cc(C[C@@H](C[C@H](N)[C@@H](O)C[C@H](C(=O)NC[C@H]2CCCO2)C(C)C)C(C)C)ccc1OC [Example 11, (2S,4S,5S,7S)-5-Amino-4-hydroxy-2-isopropyl-7-[4-methoxy-3-(3-methoxy-propoxy)-benzyl]-8-methyl-nonanoic acid [(R)-1-(tetrahydro-furan-2-yl)methyl]-amide]",4
13,"COCCCOc1cc(C[C@@H](C[C@H](N)[C@@H](O)C[C@H](C(=O)N[C@@H]2CCOC2)C(C)C)C(C)C)ccc1OC [Example 12, (2S,4S,5S,7S)-5-Amino-4-hydroxy-2-isopropyl-7-[4-methoxy-3-(3-methoxy-propoxy)-benzyl]-8-methyl-nonanoic acid ((R)-tetrahydrofuran-3-yl)-amide]",0.7
14,"COCCCOc1cc(C[C@@H](C[C@H](N)[C@@H](O)C[C@H](C(=O)N[C@H]2CCOC2)C(C)C)C(C)C)ccc1OC [Example 13, (2S,4S,5S,7S)-5-Amino-4-hydroxy-2-isopropyl-7-[4-methoxy-3-(3-methoxy-propoxy)-benzyl]-8-methyl-nonanoic acid ((S)-tetrahydrofuran-3-yl)-amide]",0.2
15,"COCCCOc1cc(C[C@@H](C[C@H](N)[C@@H](O)C[C@H](C(=O)NCC2CCOCC2)C(C)C)C(C)C)ccc1OC [Example 14, (2S,4S,5S,7S)-5-Amino-4-hydroxy-2-isopropyl-7-[4-methoxy-3-(3-methoxy-propoxy)-benzyl]-8-methyl-nonanoic acid (tetrahydro-pyran-4-ylmethyl)-amide]",1.4
16,"COCCCOc1cc(C[C@@H](C[C@H](N)[C@@H](O)C[C@H](C(=O)NCc2ccoc2)C(C)C)C(C)C)ccc1OC [Example 17, (2S,4S,5S,7S)-5-Amino-4-hydroxy-2-isopropyl-7-[4-methoxy-3-(3-methoxy-propoxy)-benzyl]-8-methyl-nonanoic acid (furan-3-ylmethyl)-amide]",2.5
17,"COCCCOc1cc(C[C@@H](C[C@H](N)[C@@H](O)C[C@H](C(=O)NCc2ccco2)C(C)C)C(C)C)ccc1OC [Example 18, (2S,4S,5S,7S)-5-Amino-4-hydroxy-2-isopropyl-7-[4-methoxy-3-(3-methoxy-propoxy)-benzyl]-8-methyl-nonanoic acid (furan-2-ylmethyl)-amide]",0.9
18,"COCCCOc1cc(C[C@@H](C[C@H](N)[C@@H](O)C[C@H](C(=O)NC2CCOCC2)C(C)C)C(C)C)ccc1C [Example 26, (2S,4S,5S,7S)-5-Amino-4-hydroxy-2-isopropyl-7-[3-(3-methoxy-propoxy)-4-methyl-benzyl]-8-methyl-nonanoic acid (tetrahydro-pyran-4-yl)-amide]",0.5
19,"COCCCOc1cc(C[C@@H](C[C@H](N)[C@@H](O)C[C@H](C(=O)NC[C@H]2CCCO2)C(C)C)C(C)C)ccc1C [Example 27, (2S,4S,5S,7S)-5-Amino-4-hydroxy-2-isopropyl-7-[3-(3-methoxy-propoxy)-4-methyl-benzyl]-8-methyl-nonanoic acid [(R)-1-(tetrahydro-furan-2-yl)methyl]-amide]",0.5
20,"COCCCOc1cc(C[C@@H](C[C@H](N)[C@@H](O)C[C@H](C(=O)NC[C@@H]2CCCO2)C(C)C)C(C)C)ccc1C [Example 28, (2S,4S,5S,7S)-5-Amino-4-hydroxy-2-isopropyl-7-[3-(3-methoxy-propoxy)-4-methyl-benzyl]-8-methyl-nonanoic acid [(S)-1-(tetrahydro-furan-2-yl)methyl]-amide]",0.6
21,"COCCCCc1cc(C[C@@H](C[C@H](N)[C@@H](O)C[C@H](C(=O)NC2CCOCC2)C(C)C)C(C)C)ccc1OC [Example 36, (2S,4S,5S,7S)-5-Amino-4-hydroxy-2-isopropyl-7-[4-methoxy-3-(4-methoxy-butyl)-benzyl]-8-methyl-nonanoic acid (tetrahydro-pyran-4-yl)-amide]",0.3
